Experimental data published in PubChem BioAssay AID330 (DTP/NCI, 2004).
Values joined by “and” are separate entries in the source; they are usually repeats but may differ in a detail not shown here. Equal values may be shown once. Toxic doses and inconclusive results are not listed. How the source made its calls: active means survival T/C of 150% or more; inactive means T/C below 125% in these data.

Test system: P388 leukemia ip, CD2F1 mice, survival T/C
Assay: NCI In Vivo Anticancer Drug Screen. Data for tumor model P388 Leukemia (intraperitoneal) in CD2F1 (CDF1) mice
Conditions: endpoint: median survival time, higher = longer survival
Outline: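 Mice carrying the transplanted tumor received test compound or vehicle. Survival was recorded in each group, and the value is the treated-group measurement divided by that of the vehicle-treated control group.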

[1] = dose: 50.0 mg/kg/injection, schedule: Q01DX005 (ip), vehicle: saline with Tween-80
[2] = dose: 100.0 mg/kg/injection, schedule: Q01DX005 (ip), vehicle: saline with Tween-80
[3] = dose: 50.0 mg/kg/injection, schedule: Q01DX009 (ip), vehicle: saline
[4] = dose: 100.0 mg/kg/injection, schedule: Q01DX009 (ip), vehicle: saline
[5] = dose: 200.0 mg/kg/injection, schedule: Q01DX009 (ip), vehicle: saline
[6] = dose: 200.0 mg/kg/injection, schedule: Q01DX005 (ip), vehicle: saline with Tween-80
[7] = dose: 60.0 mg/kg/injection, schedule: Q01DX005 (ip), vehicle: saline with Tween-80
[8] = dose: 120.0 mg/kg/injection, schedule: Q01DX005 (ip), vehicle: saline with Tween-80
[9] = dose: 240.0 mg/kg/injection, schedule: Q01DX005 (ip), vehicle: saline with Tween-80
[10] = dose: 12.5 mg/kg/injection, schedule: Q01DX005 (ip), vehicle: Klucel (hydroxypropylcellulose) (HPC)
[11] = dose: 25.0 mg/kg/injection, schedule: Q01DX005 (ip), vehicle: Klucel (hydroxypropylcellulose) (HPC)
[12] = dose: 50.0 mg/kg/injection, schedule: Q01DX005 (ip), vehicle: Klucel (hydroxypropylcellulose) (HPC)
[13] = dose: 100.0 mg/kg/injection, schedule: Q01DX001 (ip), vehicle: Klucel (hydroxypropylcellulose) (HPC)
[14] = dose: 60.0 mg/kg/injection, schedule: Q01DX005 (ip), vehicle: saline
[15] = dose: 120.0 mg/kg/injection, schedule: Q01DX005 (ip), vehicle: saline
[16] = dose: 240.0 mg/kg/injection, schedule: Q01DX005 (ip), vehicle: saline
[17] = dose: 50.0 mg/kg/injection, schedule: Q01DX009 (ip), vehicle: saline with Tween-80
[18] = dose: 100.0 mg/kg/injection, schedule: Q01DX009 (ip), vehicle: saline with Tween-80
[19] = dose: 200.0 mg/kg/injection, schedule: Q01DX009 (ip), vehicle: saline with Tween-80

Measured: T/C

C1CCN(P2(N3CCCCC3)=NP(N3CCCCC3)(N3CCCCC3)=NP(N3CCCCC3)(N3CCCCC3)=NP(N3CCCCC3)(N3CCCCC3)=N2)CC1
inactive: [1] 96 % of control | [2] 88 % of control

NC(=S)SCCC(=O)N1CCCCC1
inactive: dose: 25.0 mg/kg/injection, schedule: Q04DX002 (ip), vehicle: Klucel (hydroxypropylcellulose) (HPC) 101 % of control | dose: 50.0 mg/kg/injection, schedule: Q04DX002 (ip), vehicle: Klucel (hydroxypropylcellulose) (HPC) 95 % of control | dose: 100.0 mg/kg/injection, schedule: Q04DX002 (ip), vehicle: Klucel (hydroxypropylcellulose) (HPC) 104 % of control and 95 % of control

CN(C)/C(N)=N\c1ncccn1
inactive: dose: 12.5 mg/kg/injection, schedule: Q01DX009 (ip), vehicle: saline 94 % of control | dose: 25.0 mg/kg/injection, schedule: Q01DX009 (ip), vehicle: saline 91 % of control | [3] 91 % of control | [4] 93 % of control | [5] 90 % of control

O=C(O)C(O)(C1CCCCC1)C1CCC(C2CCCCC2)CC1C1CCCCC1 (stereo unspecified)
inactive: [1] 98 % of control | [2] 102 % of control | [6] 100 % of control

Cc1ccc2c(c1)S(=O)(=O)NC2=O
inactive: [7] 95 % of control | [8] 92 % of control | [9] 95 % of control

CCc1nc(N)nc(N)c1-c1ccc(NCCN)c(N)c1
inactive: [10] 104 % of control | [11] 101 % of control | [12] 103 % of control and 107 % of control

CCOC(=O)C1=C(C)N[C@H](c2ccccc2[N+](=O)[O-])N[C@H]1c1ccccc1[N+](=O)[O-]
inactive: [10] 105 % of control | [11] 94 % of control | [12] 88 % of control and 92 % of control

Cc1ccc(S(=O)(=O)/C=C2\COc3ccccc3C2=O)cc1
inactive: dose: 100.0 mg/kg/injection, schedule: Q04DX002 (ip), vehicle: saline 100 % of control | dose: 200.0 mg/kg/injection, schedule: Q04DX002 (ip), vehicle: saline 100 % of control | dose: 400.0 mg/kg/injection, schedule: Q04DX002 (ip), vehicle: saline 97 % of control

COc1cc2c(C)c3ccccc3c(C)c2c2ccccc12
inactive: [13] 101 % of control | dose: 200.0 mg/kg/injection, schedule: Q01DX001 (ip), vehicle: Klucel (hydroxypropylcellulose) (HPC) 110 % of control | dose: 400.0 mg/kg/injection, schedule: Q01DX001 (ip), vehicle: Klucel (hydroxypropylcellulose) (HPC) 105 % of control

Cc1cc(C)n(-c2ccccc2-[n+]2noc([O-])c2C)n1
inactive: [1] 97 % of control | [2] 95 % of control | [6] 95 % of control

COC(=O)CC/C=N/NC(N)=O
inactive: [3] 96 % of control | [4] 114 % of control | [5] 114 % of control

CCC1=CCC2C(=O)C3CC(CC)=CCC3C(=O)C2C1 (stereo unspecified)
inactive: [10] 97 % of control | [11] 92 % of control | [12] 87 % of control and 88 % of control

O=C(CC(=O)c1ccc(Cl)s1)C(=O)Nc1cccc(C(F)(F)F)c1
inactive: [7] 105 % of control | [8] 102 % of control | [9] 106 % of control

O=P1(Oc2ccccc2)NC2CCCCC2N1 (stereo unspecified)
inactive: dose: 12.5 mg/kg/injection, schedule: Q01DX005 (ip), vehicle: Klucel + Tween-80 95 % of control | dose: 25.0 mg/kg/injection, schedule: Q01DX005 (ip), vehicle: Klucel + Tween-80 97 % of control | dose: 50.0 mg/kg/injection, schedule: Q01DX005 (ip), vehicle: Klucel + Tween-80 95 % of control | [13] 94 % of control

NC1CCC[C@@H](O)[C@H]1O (stereo partly specified)
inactive: [14] 104 % of control | [15] 103 % of control | [16] 98 % of control

CC1=C(C)[CH2][Ge]([CH3])([CH3])[CH2]1
inactive: [14] 98 % of control | [15] 104 % of control | [16] 97 % of control

CC(O)CCC1CCCCN1 (stereo unspecified)
inactive: dose: 50.0 mg/kg/injection, schedule: Q01DX005 (ip), vehicle: saline 109 % of control | dose: 100.0 mg/kg/injection, schedule: Q01DX005 (ip), vehicle: saline 100 % of control | dose: 200.0 mg/kg/injection, schedule: Q01DX005 (ip), vehicle: saline 101 % of control

CCN(CC)C(=O)N1CCN(C(=O)c2cc(Nc3ccnc4cc(Cl)ccc34)ccc2O)CC1
inactive: dose: 100.0 mg/kg/injection, schedule: Q04DX002 (ip), vehicle: saline with Tween-80 100 % of control | dose: 200.0 mg/kg/injection, schedule: Q04DX002 (ip), vehicle: saline with Tween-80 100 % of control | dose: 400.0 mg/kg/injection, schedule: Q04DX002 (ip), vehicle: saline with Tween-80 89 % of control

C#CCOc1c(Cl)cc(Cl)c2ccccc12
inactive: dose: 100.0 mg/kg/injection, schedule: Q04DX003 (ip), vehicle: Klucel (hydroxypropylcellulose) (HPC) 100 % of control | dose: 200.0 mg/kg/injection, schedule: Q04DX003 (ip), vehicle: Klucel (hydroxypropylcellulose) (HPC) 93 % of control | dose: 400.0 mg/kg/injection, schedule: Q04DX003 (ip), vehicle: Klucel (hydroxypropylcellulose) (HPC) 93 % of control

CS(=O)(=O)NCCNS(C)(=O)=O
inactive: dose: 100.0 mg/kg/injection, schedule: Q04DX003 (ip), vehicle: saline with Tween-80 106 % of control | dose: 200.0 mg/kg/injection, schedule: Q04DX003 (ip), vehicle: saline with Tween-80 103 % of control | dose: 400.0 mg/kg/injection, schedule: Q04DX003 (ip), vehicle: saline with Tween-80 103 % of control

C=CCNC(=O)c1cc(N2CC2)c([N+](=O)[O-])cc1[N+](=O)[O-]
inactive: dose: 12.5 mg/kg/injection, schedule: Q01DX009 (ip), vehicle: Klucel (hydroxypropylcellulose) (HPC) 91 % of control and 97 % of control

CCN(CC)C(=O)CSc1ccc(Cl)nn1
inactive: [17] 97 % of control | [18] 98 % of control | [19] 94 % of control

SCc1ccccc1CS
inactive: [17] 110 % of control and 112 % of control and 114 % of control | [18] 110 % of control and 114 % of control and 121 % of control | [19] 107 % of control

CCC(=O)OC1C2(O)C(OC(=O)C(C)C)C3(C)CC24OC2(C)OC15C1CC(=O)OC(c6ccoc6)C1(C)CCC5(O2)C4(C)C3CC(=O)OC (stereo unspecified)
inactive: dose: 0.37 mg/kg/injection, schedule: Q01DX009 (ip), vehicle: Klucel (hydroxypropylcellulose) (HPC) 108 % of control | dose: 0.75 mg/kg/injection, schedule: Q01DX009 (ip), vehicle: Klucel (hydroxypropylcellulose) (HPC) 101 % of control | dose: 1.5 mg/kg/injection, schedule: Q01DX009 (ip), vehicle: Klucel (hydroxypropylcellulose) (HPC) 102 % of control | dose: 3.0 mg/kg/injection, schedule: Q01DX009 (ip), vehicle: Klucel (hydroxypropylcellulose) (HPC) 96 % of control

CCS(=O)(=O)C(C(O)C(O)C(O)C(C)O)S(=O)(=O)CC (stereo unspecified)
inactive: [3] 100 % of control | [4] 100 % of control | [5] 96 % of control

CCOC(=O)C1(O)CC2(CCC(OCc3ccccc3)CC2)C(=O)O1 (stereo unspecified)
inactive: [3] 102 % of control | [4] 100 % of control | [5] 98 % of control

O=C1c2cccnc2C(=O)c2c(O)ccc(O)c21
inactive: [17] 95 % of control | [18] 95 % of control | [19] 99 % of control | dose: 400.0 mg/kg/injection, schedule: Q01DX009 (ip), vehicle: saline with Tween-80 100 % of control

c1ccc2c(c1)ccc1c(-c3ccncc3)n[nH]c12
inactive: [17] 99 % of control | [18] 88 % of control | [19] 87 % of control
